Reference: US20240325398A1, “COMBINATION THERAPIES” (Infinity Pharmaceuticals, Inc., priority 2014, published 2024)

Experiments:
[1] = system: KARPAS-422; assay: Combination study, ATPLite 72 h, dose matrix (Synergy Score, CI50); conditions: combination with Compound 1, 72 h
[2] = system: DOHH2; assay: Compound 1 with dexamethasone, CellTiter-Glo viability 72 h, combination index; format: cell-based; conditions: combination with Compound 1; DOHH2 cells; CellTiter-Glo 72 h; FIG. 11
Description: (§1) The effects of Compound 1 with dexamethasone were examined in a panel of cell lines. Cells were cultured and assayed as follows. Compound 1 was serially diluted with cell culture medium and various DMSO concentrations. The top concentration of Compound 1 exposed to cells was 3 uM for cell lines other than WSU-NHL and DOHH2. For WSU-NHL and DOHH2 cell lines, the top concentration of Compound 1 exposed to the cells was 0.3 uM. Dexamethasone was serially diluted in culture media and phosphate buffered saline (PBS). The top concentration of dexamethasone used on cells was 3 uM. Cells were at least 73% viable and were counted and diluted for plating at a density of about 92,000 cell/mL, 130 uL cells per well in 96 well plates for SUDHL6, Karpas 422, SUDHL4, WSU-NHL, RL, and DOHH2 cell lines. The SUDHL10 cell line was plated at a density of about 46,000 cells/mL, 130 uL cells per well in 96 well plates.
(§2) Various concentrations of Compound 1 and various combinations of dexamethasone were added to various wells of cells. Single agents (Compound 1 or dexamethasone alone) were also added to some wells of cells. Cells were incubated with compounds for 72 hours. To assay for effects of the compounds on cell viability, a CellTiter-Glo® luminescent cell viability assay (commercially available) was used. To each plate of cells, 100 uL CellTiter-Glo reagent was added, incubated, and luminescence quantified using a […].
The results for cell line DOHH2 are depicted in FIG. 11 and Table 11. […] Table 11 depicts combination index (CI) values for different combinations of dexamethasone/Compound 1 concentrations.

[3] = system: SUDHL6; assay: as above; format: cell-based; conditions: combination with Compound 1; SUDHL6 cells; CellTiter-Glo 72 h; FIG. 12
Description: as §1, §2
The result for cell line SUDHL6 is depicted in FIG. 12 and in Table 12. […] Table 12 depicts combination index (CI) values for different combinations of dexamethasone/Compound 1 concentrations.

[4] = system: SU-DHL-10-epst; assay: Combination study, ATPLite 72 h, dose matrix (Synergy Score, CI50); conditions: combination with Compound 1, 72 h
[5] = system: DOHH-2; assay: as above; conditions: combination with Compound 1, 72 h
[6] = system: WSU-NHL; assay: as above; conditions: combination with Compound 1, 72 h
[7] = system: SU-DHL-4-epst; assay: as above; conditions: combination with Compound 1, 72 h

In the case of C[C@@H]1C[C@H]2[C@@H]3CCC4=CC(=O)C=C[C@]4(C)[C@@]3(F)[C@@H](O)C[C@]2(C)[C@@]1(O)C(=O)CO [dexamethasone, (8S,9R,10S,11S,13S,14S,16R,17R)-9-Fluoro-11,17-dihydroxy-17-(2-hydroxyacetyl)-10,13,16-trimethyl-6,7,8,9,10,11,12,13,14,15,16,17-dodecahydro-3H-cyclopenta[a]phenanthren-3-one], the CI50 growth inhibition [1] was “U (U=0.7 to <1)”, the CI50 inhibition [1] was “U (U=0.7 to <1)” and the “Synergy Score growth inhibition” value [1] was “A3 (A3=>3)”. For the same compound, the “Synergy Score inhibition” value [1] was “A3 (A3=>3)”, the “synergy of the combination” value [2] was “synergy” and the “synergy of the combination” value [3] was “synergy”. For the same compound, the CI50 growth inhibition [4] was “S (S=0.01 to <0.5)”, the CI50 inhibition [4] was “S (S=0.01 to <0.5)” and the “Synergy Score growth inhibition” value [4] was “A3 (A3=>3)”. The “Synergy Score inhibition” value [4] was “A3 (A3=>3)”, the CI50 growth inhibition [5] was “S (S=0.01 to <0.5)” and the CI50 inhibition [5] was “T (T=0.5 to <0.7)”. The “Synergy Score growth inhibition” value [5] was “A3 (A3=>3)”, the “Synergy Score inhibition” value [5] was “A3 (A3=>3)” and the CI50 inhibition [6] was “T (T=0.5 to <0.7)”. The “Synergy Score growth inhibition” value [6] was “A3 (A3=>3)”, the “Synergy Score inhibition” value [6] was “A3 (A3=>3)” and the CI50 growth inhibition [7] was “T (T=0.5 to <0.7)”. For the same compound, the CI50 inhibition [7] was “T (T=0.5 to <0.7)”, the “Synergy Score growth inhibition” value [7] was “A3 (A3=>3)” and the “Synergy Score inhibition” value [7] was “A3 (A3=>3)”.
